# Assay results taken from PMC11249646, “Small-Molecule Disruptors of the Interaction between Calcium- and Integrin-Binding Protein 1 and Integrin αIIbβ3 as Novel Antiplatelet Agents” (ACS Pharmacology & Translational Science, 2024).
# Where two headings read alike, the source gives them in different places. Where a SMILES comes first, the peptide text is derived from it. The star is where a group is joined. FITC = O=C1OC2(c3ccc(O)cc3Oc3cc(O)ccc32)c2ccc(NC(=S)*)cc21
# Columns and labels:
# Type in all cases: binding
# [1] = target: T1, CIB1 and αIIb interaction (GST-CIB1 : F-αIIb peptide) (Homo sapiens, UniProt Q99828); test: FP assay, 384-well format (screen); parameters: 384-well SCREEN Efficacy (%): concentration or dose not given beside the values; conditions: F-αIIb peptide; for 384-well SCREEN Confirm?: YES/NO
# T1 construct: made in house; host or cells: BL-21 plus RIL cells (E. coli)
# T1 sequence (Q99828 1-191): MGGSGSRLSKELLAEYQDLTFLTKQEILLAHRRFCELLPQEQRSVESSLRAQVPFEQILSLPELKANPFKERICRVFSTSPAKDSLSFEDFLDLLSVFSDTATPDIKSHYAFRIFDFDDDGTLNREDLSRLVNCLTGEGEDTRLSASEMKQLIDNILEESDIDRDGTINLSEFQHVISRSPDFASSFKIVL
# [2] = target: T2, CIB1 and αIIb interaction (CIB1-GST : F-αIIb peptide) (Homo sapiens, UniProt Q99828); test: FP assay, 1536-well qHTS format (primary and confirmatory screen)
# T2 construct: made in house; host or cells: BL-21 plus RIL cells (E. coli)
# T2 sequence (Q99828 1-191): T1 sequence (Q99828 1-191)
# [3] = target: T3, GST-CIB1 : F-scrambled peptide (Homo sapiens, UniProt Q99828); test: FP scrambled-peptide counter screen, 384-well format
# T3 construct: made in house; host or cells: BL-21 plus RIL cells (E. coli)
# T3 sequence (Q99828 1-191): T1 sequence (Q99828 1-191)
# [4] = target: T3, GST-CIB1 : F-scrambled peptide; test: FP scrambled-peptide counter screen, 1536-well format; conditions: for IC50: read-out: IC50 [μM] (counterscreen)
# [5] = qHTS primary screen hits, Table S2, negative = inhibition
# [6] = Table S3, counterscreen, qHTS curve class, a negative sign marks inhibitory curves
# [7] = Table S3, counterscreen, negative = inhibition
# [8] = Table S3, confirmatory screen, qHTS curve class, a negative sign marks inhibitory curves
# [9] = Table S3, confirmatory screen, negative = inhibition
# [10] = qHTS FP screen hits, Table S2, negative = inhibition
# [11] = qHTS FP screen hits, Table S2, one class per curve where COUNT > 1, negative sign = inhibitory curve
# [12] = qHTS FP screen hits, Table S2, read-out: IC50
# [13] = counterscreen, qHTS curve class, negative sign = inhibitory curve
# [14] = confirmatory screen, qHTS curve class, negative sign = inhibitory curve
# [15] = confirmatory screen, read-out: IC50 [μM] (confirmatory screen)
# [16] = qHTS primary screen hits, Table S2, negative sign = inhibitory curve, several classes where COUNT > 1
# [17] = qHTS primary screen hits, Table S2, read-out: IC50
# [18] = Table S3, confirmatory screen, YES/NO call
# [19] = Table S3, confirmatory screen, read-out: IC50 [μM] (confirmatory screen)
# [20] = Table S3, counterscreen, YES/NO call
SMILES,"Efficacy (%) [2, 10] [%]","Curve Class [2, 11]","IC50 [2, 12] [µM]",Efficacy (%) (counterscreen) ([4]; counterscreen),"Curve Class (counterscreen) [4, 13]",IC50 ([4]; counterscreen) [µM],Efficacy (%) (confirmatory screen) ([2]; confirmatory screen),"Confirm? (confirmatory screen) ([2]; confirmatory screen, YES/NO)","Curve Class (confirmatory screen) [2, 14]","IC50 [2, 15] [µM]","Efficacy (%) [2, 5] [%]","Curve Class (counterscreen) [4, 6]","Efficacy (%) (counterscreen) [4, 7]","Curve Class (confirmatory screen) [2, 8]","Efficacy (%) (confirmatory screen) [2, 9]","Curve Class [2, 16]","IC50 [2, 17] [µM]",other results
Cc1nc(N=Nc2cc(S(=O)(=O)O)c3cc([N+](=O)[O-])cc(S(=O)(=O)O)c3c2)c(COP(=O)(O)O)c(C=O)c1O (stereo in doubt) [NCGC00162294-03],–,–,–,–,–,–,–,–,–,–,-64,–,–,–,–,–,–,"384-well SCREEN Efficacy (%) [1]: 70%; 384-well SCREEN Confirm? [1]: YES; Curve Class ([2]; qHTS primary screen hits, Table S2, negative sign = inhibitory curve): -1.2; 384-well COUNTERSCREEN Efficacy (%) ([3]; F-scrambled peptide): 70%"
"CSCC[C@H](NC(=O)[C@@H](NC(=O)[C@H](CCCCN)NC(=O)[C@@H](NC(=O)[C@H](Cc1ccccc1)NC(=O)[C@H](CC(C)C)NC(=O)[C@H](CCCCN)NC(=O)[C@H](CCCNC(=N)N)NC(C)=O)C(C)C)C(C)C)C(=O)N[C@@H](Cc1ccccc1)C(=O)N[C@@H](Cc1c[nH]c2ccccc12)C(=O)N[C@@H](CCCNC(=N)N)C(=O)N[C@@H](CC(C)C)C(=O)N[C@@H](CC(N)=O)C(=O)NCC(=O)N[C@@H](C)C(=O)N[C@@H](CCCCNC(=S)Nc1ccc2c(c1)C(=O)OC21c2ccc(O)cc2Oc2cc(O)ccc21)C(=O)O [F-scrambled, reference compound] (Ac-RKLFVKVMFWRLNGAK(FITC)-OH; C-terminus assumed)",–,–,–,–,–,–,–,–,–,–,–,–,–,–,–,–,–,"affinity weaker compared to the native peptide ([3]; F-scrambled vs F-αIIb, 1.6 vs 0.2 μM): ~8 fold"
CN(C)[C@@H]1CCN(c2cccc(Nc3nn4c(=O)c5ccccc5nc4s3)c2)C1.Cl [NCGC00189223-01],–,–,–,–,–,–,–,–,–,–,–,–,–,–,–,–,–,"384-well SCREEN Efficacy (%) [1]: 48%; 384-well SCREEN Confirm? [1]: YES; IC50 ([1]; read-out: 384-well SCREEN IC50): 15.8 µM; 384-well COUNTERSCREEN Efficacy (%) ([3]; F-scrambled peptide): 34%; IC50 ([3]; F-scrambled peptide, read-out: 384-well COUNTERSCREEN IC50): 14.1 µM"
CC[C@@H](c1ccc(F)c(F)c1)n1c(C(=O)OC)c(-c2ccno2)[nH]c1=S [NCGC00387465-01],-79,-2.2,79.4,–,–,–,–,–,–,–,–,4,0,4,-22,–,–,–
C=C1[C@@H](C)[C@H]2[C@H](Cc3ccccc3)NC(=O)[C@]23OC(=O)/C=C/C(=O)CCC[C@@H](C)C/C=C/[C@H]3[C@@H]1O [NCGC00388356-01],-73,-1.2,20,-57,-1.2,5.6,-94,YES,-1.1,10,–,–,–,–,–,–,–,–
O=C(N/N=C1\C(=O)N(CCc2ccccc2)c2ccccc21)c1cccnc1 [NCGC00420788-01],–,–,–,–,–,–,–,–,–,–,-28,-2.2,-65,-2.2,-58,-1.4,22.4,"IC50 ([4]; Table S3, counterscreen): 44.7 µM; Confirm? (confirmatory screen) [2, 18]: YES; IC50 [2, 19]: 39.8 µM"
Nc1nc2c(s1)C(c1ccccc1)CC(=O)N2 (stereo not drawn) [NCGC00422009-03],–,–,–,–,–,–,–,–,–,–,-83,-2.4,-45,4,-35,-2.2,79.4,"Confirm? (counterscreen) [4, 20]: YES; IC50 ([4]; Table S3, counterscreen): 39.8 µM"
Cc1ccc2c(c1)/C(=C\C(=O)c1cccs1)C(=O)N2.O=C(O)C(F)(F)F [NCGC00479180-01],–,–,–,–,–,–,–,–,–,–,-36,-2.4,-64,-1.2,-57,-1.4,15.8,"IC50 ([4]; Table S3, counterscreen): 11.2 µM; Confirm? (confirmatory screen) [2, 18]: YES; IC50 [2, 19]: 11.2 µM"
COc1cc2ccccc2cc1C(=O)N/C(S)=N/c1cc(C(=O)O)ccc1C.O=C(O)C(F)(F)F [NCGC00479324-01],-25,–,12.6,–,–,–,–,–,–,–,–,–,–,–,–,–,–,"COUNTERSCREEN Efficacy (%) ([4]; counterscreen): 12%; COUNTERSCREEN Curve Class ([4]; counterscreen, qHTS curve class): 4; CONFIRMATORY SCREEN Efficacy (%) ([2]; confirmatory screen): -38%; CONFIRMATORY SCREEN Curve Class ([2]; confirmatory screen, qHTS curve class): 4"
COc1ccccc1C(=O)/C=C1/C(=O)Nc2ccc(C)cc21.O=C(O)C(F)(F)F [NCGC00481357-01],–,–,–,-51,-1.4,6.3,-59,YES,-1.4,5.6,-43,–,–,–,–,-1.2,14.1,–
O=C(O)c1cnn(-c2nc3cc(Cl)c(OC(F)(F)F)cc3[nH]2)c1 [NCGC00484069-01],-33,-1.2,28.2,-15,4,–,-39,YES,-2.4,44.7,–,–,–,–,–,–,–,"Confirm? (counterscreen) ([4]; counterscreen, YES/NO): YES"
Nc1nc2c(s1)C(c1ccccc1C(F)(F)F)CC(=O)N2.O=C(O)C(F)(F)F (stereo not drawn) [NCGC00488247-02],-83,-2.2,44.7,–,–,–,–,–,–,–,–,-2.4,-39,4,-12,–,–,"Confirm? (counterscreen) [4, 20]: YES; IC50 ([4]; Table S3, counterscreen): 28.2 µM"
O=C(O)C(F)(F)F.O=C1CC(c2ccccc2Cl)c2sc(N3CCOCC3)nc2N1 (stereo not drawn) [NCGC00488256-02],–,–,–,–,–,–,–,–,–,–,-72,-2.2,-77,-2.4,-49,-2.2,79.4,"IC50 ([4]; Table S3, counterscreen): 31.6 µM; Confirm? (confirmatory screen) [2, 18]: YES; IC50 [2, 19]: 50.1 µM"
CNc1nc2c(s1)C(c1c(F)cccc1Cl)CC(=O)N2.O=C(O)C(F)(F)F (stereo not drawn) [NCGC00488265-02],–,–,–,–,–,–,–,–,–,–,-65,4,0,4,-12,-2.2,56.2,–

# Second part, led by results:
"Efficacy (%) [2, 10] [%]","Curve Class [2, 11]","IC50 [2, 12] [µM]",Efficacy (%) (counterscreen) ([4]; counterscreen),"Curve Class (counterscreen) [4, 13]",IC50 ([4]; counterscreen) [µM],Efficacy (%) (confirmatory screen) ([2]; confirmatory screen),"Confirm? (confirmatory screen) ([2]; confirmatory screen, YES/NO)","Curve Class (confirmatory screen) [2, 14]","IC50 [2, 15] [µM]",SMILES,"Efficacy (%) [2, 5] [%]","Curve Class (counterscreen) [4, 6]","Efficacy (%) (counterscreen) [4, 7]","Curve Class (confirmatory screen) [2, 8]","Efficacy (%) (confirmatory screen) [2, 9]","Curve Class [2, 16]","IC50 [2, 17] [µM]",other results
-48,-1.2,3.5,-36,-1.2,4,-53,YES,-1.2,2.8,CNc1ccc([N+](=O)[O-])c(Nc2ccc3[nH]ncc3c2)n1 [NCGC00387499-01],–,–,–,–,–,–,–,–
–,–,–,-48,-2.2,31.6,-53,YES,-2.4,44.7,O=C1NC(c2ccc(N3CCOCC3)cc2)(c2ccsc2)CC(O)=C1Sc1ccccc1Cl (stereo not drawn) [NCGC00388532-05],-27,–,–,–,–,-1.4,0.9,–
-36,-1.2,28.2,-32,-2.2,50.1,-42,YES,-2.2,39.8,Oc1ccc2c(-c3c(-c4ccccn4)nn4c3CCC4)ccnc2c1 [NCGC00408881-01],–,–,–,–,–,–,–,–
–,–,–,-34,-1.4,6.3,-47,YES,-2.2,20,O=C1C[C@@](c2ccc(N3CCOCC3)cc2)(c2ccsc2)NC(=O)C1Sc1ccccc1Cl (stereo partly drawn) [NCGC00420796-01],–,–,–,–,–,–,–,–
-54,-2.2,79.4,-16,4,–,-39,YES,-2.4,89.1,Nc1nc2c(s1)C(c1ccc(F)cc1F)CC(=O)N2 (stereo not drawn) [NCGC00422010-03],–,–,–,–,–,–,–,"Confirm? (counterscreen) ([4]; counterscreen, YES/NO): YES"
-25,–,25.1,-22,4,–,-30,YES,-2.4,35.5,CC(C)C(=O)OCc1ccc(-c2nn(Cc3ccccc3)c3ccccc23)o1 [NCGC00479272-01],–,–,–,–,–,–,–,"Confirm? (counterscreen) ([4]; counterscreen, YES/NO): YES"
